Drawing on the OligoGym collection, this text covers target mRNA inhibition for 68 sequences.

Several values for one entry are separate records, joined by “and”; a condition that tells them apart may be missing. Equal entries are not always repeated. After the bases stand the sugars from the 5' end (letter, count) and the backbone: PS all phosphorothioate, else s phosphorothioate and o phosphodiester by linkage. Methylation of C is not given here. [mop] = methoxypropylphosphonate linkage; e = 2'-O-(2-methoxyethyl) (MOE); k = constrained ethyl (cEt); d = 2'-deoxy (DNA); m = 2'-O-methyl

One data set has as its target KRAS. To be noted: ASO.
A further data set concerns the target IRF5. To be noted: ASO.

The sequence TAATTACTTATGCAGA (sugars k3 d10 k3, PS) registered a target mRNA inhibition with KRAS (A431, 2 µM) of 17%. Turning to TGTGAAACTCTCTATG (sugars k3 d10 k3, PS), in the data set with KRAS (A431, 2 µM), the target mRNA inhibition was 4%. As to “GATTTGTCAGCAGGAC (sugars kddddddddddkekek, PS)”, the target mRNA inhibition with KRAS (A431, 0.185 µM) was determined as 16%; with KRAS (A431, 0.556 µM) it was 46%; in the data set with KRAS (A431, 1.667 µM), 62%; with KRAS (A431, 2 µM), 57%; with KRAS (A431, 5 µM), 78%.

ATTGTTTAAAAAAAAA (sugars k3 d10 k3, PS) gave a target mRNA inhibition with KRAS (A431, 2 µM) of 0%.

AGTGATTAGGTCAAAT (sugars k3 d10 k3, PS) gave a target mRNA inhibition with KRAS (A431, 2 µM) of 23%. On the same count and under the same terms, in the case of TTTAAAAAAAAAATTA (sugars k3 d10 k3, PS) it was 3%. For ATAGTTTCCATTGCCT (sugars k3 d10 k3, PS), the target mRNA inhibition is 64% and 45% with KRAS (A431, 1.667 µM); 50% and 65% with KRAS (A431, 2 µM); 75% and 70% with KRAS (A431, 5 µM). On to AAATGCTAATAATTTA (sugars k3 d10 k3, PS), for which, in the data set with KRAS (A431, 2 µM), the target mRNA inhibition was found to be 13%. The sequence AATGCTAATAATTTAG (sugars k3 d10 k3, PS) returned a target mRNA inhibition with KRAS (A431, 2 µM) of 0%.

TGTCTATTCATACCAG (sugars k3 d10 k3, PS) yielded a target mRNA inhibition in the data set with KRAS (A431, 2 µM) of 16%. The same measure, in the same setting: in the case of “ACCATTCAAAGTTCAC (sugars kkkdddddddddkeke, PS)” it was 30%; in that of TAGTTTCCATTGCCTT (sugars k3 d10 k3, PS), 16%; in that of TACTTATGCAGAGAAA (sugars k3 d10 k3, PS), 0%. On the same count and under the same terms, in the case of CATTTATGTGACTAGA (sugars k3 d10 k3, PS) it was 56%. On to “TGGTGTAACATAGGTT (sugars kkdddddddddkekek, PS)”, for which the target mRNA inhibition with KRAS (A431, 0.185 µM) is 21%; with KRAS (A431, 0.556 µM) it was 45%; with KRAS (A431, 1.667 µM), 66%; with KRAS (A431, 2 µM), 62%; in the data set with KRAS (A431, 5 µM), 83%. “GTCCAGTGATACTTTC (sugars kdddddddddkekeke, PS)” came in with a target mRNA inhibition with KRAS (A431, 2 µM) of 20%. Take ATTTGTCAGCAGGACC (sugars k3 d10 k3, PS): the target mRNA inhibition with KRAS (A431, 2 µM) came out at 35%.

Sequence AAAACAAATGCTAATA (sugars k3 d10 k3, PS) displayed a target mRNA inhibition in the data set with KRAS (A431, 2 µM) of 12%. For “CAGTGTGACTCAGTTA (sugars kkddddddddkekekk, PS)”, the target mRNA inhibition in the data set with KRAS (A431, 0.185 µM) was found to be 0%; in the data set with KRAS (A431, 0.556 µM) it was 36%; with KRAS (A431, 1.667 µM) it was 58%; with KRAS (A431, 2 µM) it was 63%; in the data set with KRAS (A431, 5 µM), 67%. Turning to “TGATTTGTCAGCAGGA (sugars kkdddddddddkdkdk, PS)”, the target mRNA inhibition in the data set with KRAS (A431, 2 µM) amounted to 15%. ACTTTTTGACAAATGG (sugars k3 d10 k3, PS) came in with a target mRNA inhibition with KRAS (A431, 2 µM) of 46%. “ATTGTGCTGAGCTTGA (sugars kkddddddddkekekk, PS)”: the target mRNA inhibition with KRAS (A431, 2 µM) stood at 31%. The sequence ATGCAATGTTAATTTA (sugars k3 d10 k3, PS) showed a target mRNA inhibition in the data set with KRAS (A431, 2 µM) of 9%. Same read-out and setting: with CTATAATAATCCCCAT (sugars k3 d10 k3, PS) the figure was 6%. Regarding TTAGTGATTAGGTCAA (sugars k3 d10 k3, PS), the target mRNA inhibition was 32% in the data set with KRAS (A431, 0.185 µM); 56% with KRAS (A431, 0.556 µM); 68% in the data set with KRAS (A431, 1.667 µM); 59% and 51% and 52% in the data set with KRAS (A431, 2 µM); 82% with KRAS (A431, 5 µM).

In the data set with KRAS (A431, 2 µM), TATCTTGTTGAGCTAT (sugars k3 d10 k3, PS) returned a target mRNA inhibition of 33%.

“CAGTGTGACTCAGTTA (sugars k3 d9 k3 e1, PS)”: the target mRNA inhibition with KRAS (A431, 2 µM) was found to be 42%. On to GGTGAATATCTTCAAA (sugars k3 d10 k3, PS), for which the target mRNA inhibition with KRAS (A431, 2 µM) came out at 28%. On the same count and under the same terms, in the case of TTAGGGGAATTACAAG (sugars k3 d10 k3, PS) it was 23%. Still for that read-out and setting: with GCTAAAACAAATGCTA (sugars k3 d10 k3, PS) the figure was 33%; with TCTGTCTATTCATACC (sugars k3 d10 k3, PS), 12%. The same measure, in the same setting: with TGCTGTGAAACTCTCT (sugars k3 d10 k3, PS) the figure was 27%; with AATTAGTGATTAGGTC (sugars k3 d10 k3, PS), 32%. For the sequence AGTGTTTATGCAATGT (sugars k3 d10 k3, PS), the target mRNA inhibition with KRAS (A431, 0.185 µM) is 27% and 9%; with KRAS (A431, 0.556 µM), 46% and 21%; with KRAS (A431, 1.667 µM), 65% and 46%; with KRAS (A431, 2 µM), 69% and 50%; with KRAS (A431, 5 µM), 83% and 67%. In the case of “TGGTGTAACATAGGTT (sugars kkkddddddddkekek, PS)”, the target mRNA inhibition worked out at 31% with KRAS (A431, 0.185 µM); 53% with KRAS (A431, 0.556 µM); 79% with KRAS (A431, 1.667 µM); 67% in the data set with KRAS (A431, 2 µM); 82% in the data set with KRAS (A431, 5 µM). In turn, TAAAACAAATGCTAAT (sugars k3 d10 k3, PS) registered a target mRNA inhibition in the data set with KRAS (A431, 2 µM) of 5%. On the same count and under the same terms, in the case of GCAAGATGACACTAAT (sugars k3 d10 k3, PS) it was 30%; in that of TATGCAATGTTAATTT (sugars k3 d10 k3, PS), 8%. Same read-out and setting: in the case of “TGATTTGTCAGCAGGA (sugars kdddddddddkekeke, PS)” it was 32%; in that of AAAATTAATGTCTTGG (sugars k3 d10 k3, PS), 12%; in that of TGTATCTTGTTGAGCT (sugars k3 d10 k3, PS), 31%.

As to CAGTATTAACACAGAA (sugars k3 d10 k3, PS), the target mRNA inhibition with KRAS (A431, 2 µM) stood at 7%.

“TGTTTATGCAATGTTA (sugars kkddddddddkekekk, PS)”: the target mRNA inhibition with KRAS (A431, 0.185 µM) was determined as 22%; in the data set with KRAS (A431, 0.556 µM), 47%; in the data set with KRAS (A431, 1.667 µM), 68%; with KRAS (A431, 2 µM), 56%; with KRAS (A431, 5 µM), 76%. As for “CATTTATGTGACTAGA (sugars kkddddddddkekekk, PS)”, the target mRNA inhibition in the data set with KRAS (A431, 2 µM) turned out to be 20%. In the data set with KRAS (A431, 2 µM), TGAATTAGTCTCCATT (sugars k3 d10 k3, PS) yielded a target mRNA inhibition of 17%. For the sequence “TCTTGATTTGTCAGCA (sugars kkddddddddddkeke, PS)”, the target mRNA inhibition is 84% with KRAS (A431, 0.037 µM); 65% and 61% in the data set with KRAS (A431, 0.125 µM); 91% and 92% in the data set with KRAS (A431, 2 µM); 67.6% with KRAS (NCI-H460, 0.037 µM).

On to GCAATGTTAATTTAAC (sugars k3 d10 k3, PS), for which the target mRNA inhibition with KRAS (A431, 2 µM) came to 17%. The same measure, in the same setting: in the case of TCTATTCATACCAGGT (sugars k3 d10 k3, PS) it was 26%. On the same count and under the same terms, with CTATTCATACCAGGTT (sugars k3 d10 k3, PS) the figure was 33%.

Turning to “TTAGTGATTAGGTCAA (sugars kdddddddddkekeke, PS)”, in the data set with KRAS (A431, 2 µM), the target mRNA inhibition turned out to be 0%. “TCTGATATGATACCTA (sugars k3 d10 k3, linkages s5 [mop]1 s9)”: the target mRNA inhibition with IRF5 (A-431, 0.00412 µM) is 10%; with IRF5 (A-431, 0.01225 µM), 6%; with IRF5 (A-431, 0.03704 µM) it was 38%; with IRF5 (A-431, 0.11111 µM), 56%; with IRF5 (A-431, 0.33333 µM), 71%; in the data set with IRF5 (A-431, 1 µM) it was 77%. In turn, “CCACTGTGTACCCCAT (sugars k2 d9 e3 k2, PS)” had a target mRNA inhibition in the data set with IRF5 (KARPAS-229, 4 µM) of 64%. In the data set with IRF5 (KARPAS-229, 4 µM), “GAGTCATGGGCTGAGG (sugars kkkddddddddkekek, PS)” yielded a target mRNA inhibition of 0%. For “TCTGATATGATACCTA (sugars k3 d10 k3, linkages s4 [mop]1 s10)”, the target mRNA inhibition with IRF5 (A-431, 0.00412 µM) is 10%; in the data set with IRF5 (A-431, 0.01225 µM), 14%; with IRF5 (A-431, 0.03704 µM), 43%; with IRF5 (A-431, 0.11111 µM) it was 66%; in the data set with IRF5 (A-431, 0.33333 µM), 80%; in the data set with IRF5 (A-431, 1 µM), 87%. “AAGGGCACAGCGCAGG (sugars kkdddddddddkekek, PS)” came in with a target mRNA inhibition with IRF5 (KARPAS-229, 4 µM) of 0%.

For “ACTGACACAGGCGGAT (sugars k3 d9 k3 e1, PS)”, the target mRNA inhibition in the data set with IRF5 (KARPAS-229, 4 µM) worked out at 0%. Still for that read-out and setting: with “TGTCACATCTCCACAT (sugars kkddddddddkekekk, PS)” the figure was 0%; with CAGGGAGTCAGACCTA (sugars k3 d10 k3, PS), 0%; with TGAGTAGGACGAGTTA (sugars k3 d10 k3, PS), 18%.

In the data set with IRF5 (KARPAS-229, 4 µM), “AGGAAGTGAGTCTCAA (sugars kdddddddddkekeke, PS)” registered a target mRNA inhibition of 23%.

Consider “TGTCTAGTGTCATGGA (sugars k2 d9 e3 k2, linkages s4 [mop]1 s10)”, for which the target mRNA inhibition with IRF5 (A-431, 0.00412 µM) is 2%; in the data set with IRF5 (A-431, 0.01225 µM), 11%; with IRF5 (A-431, 0.03704 µM), 4%; with IRF5 (A-431, 0.11111 µM), 8%; with IRF5 (A-431, 0.33333 µM), 18%; with IRF5 (A-431, 1 µM), 32%. On to “TTCTGCAGGGAGTCAG (sugars kkddddddddkekekk, PS)”, for which the target mRNA inhibition in the data set with IRF5 (KARPAS-229, 4 µM) was 0%. As to “CTGATATGATACCTAA (sugars k3 d2 m1 d7 k3, PS)”, the target mRNA inhibition in the data set with IRF5 (A-431, 0.00412 µM) was 1%; in the data set with IRF5 (A-431, 0.01225 µM), 14%; with IRF5 (A-431, 0.03704 µM) it was 31%; with IRF5 (A-431, 0.11111 µM), 56%; in the data set with IRF5 (A-431, 0.33333 µM), 74%; with IRF5 (A-431, 1 µM) it was 79%. In the case of “CCCAATGCAACATCCA (sugars kekdddddddddeekk, PS)”, the target mRNA inhibition with IRF5 (KARPAS-229, 4 µM) came out at 0%. Same read-out and setting: with “CGGTCTTTGAGGTCTG (sugars kkddddddddkekekk, PS)” the figure was 33%. The same measure, in the same setting: in the case of “CTTCTGCAGGGAGTCA (sugars kkddddddddkekekk, PS)” it was 0%. Same read-out and setting: in the case of “GGAAGTGAGTCTCAAA (sugars kkdddddddddkdkdk, PS)” it was 12%; in that of “CAATGCAACATCCATC (sugars kddddddddddkekek, PS)”, 0%.
